In patent US20190106460A1, “BINDING INHIBITORS OF THE BETA. TRANSDUCIN REPEAT-CONTAINING PROTEIN” (priority 2011, published 2019):
Non-standard residues stand in square brackets, D forms with d. Residues, ends and D or L forms follow the SMILES beside them. Groups on a side chain read outwards from the residue. *: point of attachment. X3 = CC(C)CCC[C@@H](C)[C@H]1CCC2C3CC=C4C[C@@H](OC(=O)*)CC[C@]4(C)C3CC[C@@]21C; Benzenesulfonyl(4-OMe) = COc1ccc(S(=O)(=O)*)cc1; Phe(3-F) = N[C@@H](Cc1cccc(F)c1)C(=O)O; Ahx = NCCCCCC(=O)O

What was measured:
MCF7:GFP-PDCD4^WT = assay: Fluorescence reporter assay for PDCD4 accumulation, wild type; format: cell-based
Experimental: Fluorescence Reporter Assay for PDCD4 Accumulation
This assay uses two stable cell lines expressing PDCD4 fused to a GFP tag.
The two stable cell lines MCF7:GFP-PDCD4^WT and MCF7:GFP-PDCD4^S71A/S76Awere grown in 10 ml DMEM+10% FBS and 1% Pen/Strep supplemented with 2 mg/ml Geneticin at 37° C./5% CO2. These cell lines were nucleofected as described above except for the additional supplementation of all media with 2 mg/ml Geneticin.
Fluorescent Reporter Assay
The cells were fixed by removing the growth media and adding 3.7% Formaldehyde in PBS to the cells. The cells were then incubated at RT for 20 mins and the plates washed 3× in PBS.
DRAQ5 DNA stain was added to the cells in PBS at a concentration of 1:10000 and incubated at RT for 1 hour protecting from light. The plate was washed 3× in PBS and read on the Perkin Elmer OPERA platform using the nuclei counting algorithm F in both the 488 nm channel (GFP) and 640 nm channel (DRAQ5). DMSO was used as a negative control and 10 μM MG132 was used as a positive control. Error bars represent standard deviation from 6 replicates. The data are expressed as percentage activity with DMSO (WT)=0% and 10 μM MG132 (WT)=100% activity.
This confirms that the stabilisation resulting from the compounds is dependent on the βTrCP/PDCD4 interaction and is not due to another mechanism such as a global increase in protein production.

β-catenin in MCF7 cells = assay: β-Catenin in cell western; format: cell-based
Experimental: β-Catenin in Cell Western
Plating of the MCF7 cells onto 96 well plates—this step is carried out 1 day before the treatment of the cells to allow the cells to adhere well to the tissue culture plastic. MCF7 cells to be used for seeding should be less than 100% confluent in a 10 cm dish. Add 3 ml of RT trypsin/EDTA to the cells. Incubate at 37° C./5% CO2 for a few minutes until the cells easily come away from the plastic by gentle swirling. Add 7 ml of media to the cells. Wash the bottom of the plate gently with the 10 ml to ensure all cells are captured and dispense into a 15 ml falcon. Add 1001l of the cells to 1001l of Trypan blue and add to haemocytometer to count the number of cells present. Make up approx 10 ml of cells in media at 2×10^4 cells/1001l (well) with fresh media. Add this correct seeding density to a 10 cm dish. Dispense 1001l of cells/well into a 96 well plate without using the outside wells. Incubate at 37° C./5% CO2 overnight
Treatment of MCF7 cells with compound of interest (COI) and controls—Put OptiMEM into 37° C. water bath to warm. Add 4 ul of 50 mM compound X for testing to eppendorf—this is tube 1. Add 2 al DMSO to 6 tubes marked tube 2-7. Take 21 al of 50 mM (COI) and add to 2 al of DMSO in tube 2 and pipette up and down to mix. Take 21 al from tube 2 and add to 2 μl DMSO in next tube and mix. […]

COc1ccc(S(=O)(=O)N[C@H](CC(=O)O)C(=O)N[C@@H](CCC(=O)O)C(=O)NCC(=O)N[C@@H](Cc2cccc(F)c2)C(=O)N[C@@H](Cc2c[nH]c3ccccc23)C(=O)N[C@@H](CCC(=O)O)C(=O)NCCCCCC(=O)N[C@@H](CCCCNC(=O)CCCCCNC(=O)O[C@H]2CC[C@@]3(C)C(=CCC4C3CC[C@@]3(C)C4CC[C@@H]3[C@H](C)CCCC(C)C)C2)C(N)=O)cc1 (some centres unmarked) [UBP036, 4-(MeO)PhSO2-dEGF(3F)WE-Ahx-K(Ahx-Chol)-NH2] ({Benzenesulfonyl(4-OMe)}-[dD]EG[Phe(3-F)]WE[Ahx]K([Ahx-X3])-NH2)
accumulation of GFP-PDCD4, fluorescent reporter assay (MCF7:GFP-PDCD4^WT): GFP-PDCD4 accumulation | accumulation of β-catenin, in cell western (β-catenin in MCF7 cells): accumulation of β-catenin
